The text below walks through data of patent US12448389B2, “BRM targeting compounds and associated methods of use” (Prelude Therapeutics Incorporated, priority 2020, dated 2025).

For one experiment, the target named is T1, SMARCA4-HiBiT (Homo sapiens, UniProt P51532).
T1 construct: SMARCA4-HiBiT knock-in Hela monoclonal cell (CS3023226); host or cells: HeLa monoclonal knock-in line (CRISPR HiBiT knock-in at the endogenous locus, heterozygous)
Briefly: SMARCA4 HiBiT degradation assay in HeLa cells. The format is cell-based. The following applies: 18 hours incubation; for DC50: read-out: HeLa-HiBit-SM4 DC50; for Dmax: HeLa, read-out: HeLa-HiBit-SM4 Dmax (%). Summed up: (§1)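 HeLa monoclonal lines with heterozygous HiBiT knock-in were seeded at 2500 cells/well in EMEM with 10% FBS and treated with compound for 18 h at 37 °C. Remaining tagged protein was measured by Nano-Glo HiBiT lytic luminescence after 30–60 min at RT, and values came from curve fitting.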

Another experiment concerns the target T2, SMARCA2-HiBiT (Homo sapiens, UniProt P51531).
T2 construct: SMARCA2-HiBiT knock-in Hela monoclonal cell (CS302366); host or cells: HeLa monoclonal knock-in line (CRISPR HiBiT knock-in at the endogenous locus, heterozygous)
Briefly: SMARCA2 HiBiT degradation assay in HeLa cells. The following applies: 18 hours incubation; for DC50: read-out: HeLa_HiBit-SM2 DC50; for Dmax: HeLa, read-out: HeLa-HiBit-SM2 Dmax (%). The experiment is classed as cell-based. Summed up:
as §1
Background: HiBiT is a short tag that completes a luciferase, so light tracks the accessible tagged protein.

The structures appear in SMILES notation. Where only a bound is given, the exact number is not on record here.

T1 sequence (P51532 whole entry): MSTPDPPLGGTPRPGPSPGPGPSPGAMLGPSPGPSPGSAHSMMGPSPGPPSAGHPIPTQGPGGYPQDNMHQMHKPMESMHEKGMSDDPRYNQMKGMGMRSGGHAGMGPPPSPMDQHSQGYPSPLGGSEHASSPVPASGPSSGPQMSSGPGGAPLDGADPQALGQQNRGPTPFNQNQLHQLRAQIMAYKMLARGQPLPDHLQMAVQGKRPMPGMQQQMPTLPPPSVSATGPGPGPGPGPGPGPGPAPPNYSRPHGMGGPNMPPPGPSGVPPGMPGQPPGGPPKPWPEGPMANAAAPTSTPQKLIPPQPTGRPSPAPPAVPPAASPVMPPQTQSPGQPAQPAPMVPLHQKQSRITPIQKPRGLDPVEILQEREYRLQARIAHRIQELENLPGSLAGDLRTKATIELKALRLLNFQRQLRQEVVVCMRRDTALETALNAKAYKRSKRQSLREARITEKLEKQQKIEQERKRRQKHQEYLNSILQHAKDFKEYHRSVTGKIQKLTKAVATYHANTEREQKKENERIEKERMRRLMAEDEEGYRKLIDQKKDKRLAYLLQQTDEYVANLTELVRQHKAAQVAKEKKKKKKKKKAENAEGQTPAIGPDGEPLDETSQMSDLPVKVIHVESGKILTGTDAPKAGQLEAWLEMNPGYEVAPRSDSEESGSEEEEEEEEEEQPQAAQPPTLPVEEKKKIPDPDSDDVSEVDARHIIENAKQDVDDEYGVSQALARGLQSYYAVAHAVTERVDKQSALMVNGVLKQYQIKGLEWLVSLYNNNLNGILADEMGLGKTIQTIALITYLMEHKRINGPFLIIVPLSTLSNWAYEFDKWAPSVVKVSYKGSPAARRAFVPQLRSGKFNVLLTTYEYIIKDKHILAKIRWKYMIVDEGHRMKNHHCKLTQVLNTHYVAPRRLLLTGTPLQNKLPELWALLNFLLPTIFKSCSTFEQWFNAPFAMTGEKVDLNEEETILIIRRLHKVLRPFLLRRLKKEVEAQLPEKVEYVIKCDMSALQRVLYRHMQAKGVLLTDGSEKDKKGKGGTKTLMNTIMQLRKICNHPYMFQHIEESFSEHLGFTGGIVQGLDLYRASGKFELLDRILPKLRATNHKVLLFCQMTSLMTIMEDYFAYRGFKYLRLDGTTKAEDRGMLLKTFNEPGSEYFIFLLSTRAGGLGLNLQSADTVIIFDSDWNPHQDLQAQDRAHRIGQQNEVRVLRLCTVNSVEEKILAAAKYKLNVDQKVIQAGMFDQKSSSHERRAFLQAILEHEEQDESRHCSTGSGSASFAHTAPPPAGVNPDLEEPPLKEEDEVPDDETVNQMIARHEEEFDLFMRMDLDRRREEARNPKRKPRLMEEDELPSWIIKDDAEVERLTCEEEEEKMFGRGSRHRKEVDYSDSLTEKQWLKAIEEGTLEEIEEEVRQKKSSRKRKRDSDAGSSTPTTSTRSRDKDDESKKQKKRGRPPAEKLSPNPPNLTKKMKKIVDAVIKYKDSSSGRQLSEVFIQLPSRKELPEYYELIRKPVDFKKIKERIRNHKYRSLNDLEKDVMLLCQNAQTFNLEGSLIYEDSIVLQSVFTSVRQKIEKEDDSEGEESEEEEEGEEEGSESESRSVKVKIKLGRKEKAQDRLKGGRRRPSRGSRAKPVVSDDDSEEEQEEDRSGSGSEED
T2 sequence (P51531 whole entry): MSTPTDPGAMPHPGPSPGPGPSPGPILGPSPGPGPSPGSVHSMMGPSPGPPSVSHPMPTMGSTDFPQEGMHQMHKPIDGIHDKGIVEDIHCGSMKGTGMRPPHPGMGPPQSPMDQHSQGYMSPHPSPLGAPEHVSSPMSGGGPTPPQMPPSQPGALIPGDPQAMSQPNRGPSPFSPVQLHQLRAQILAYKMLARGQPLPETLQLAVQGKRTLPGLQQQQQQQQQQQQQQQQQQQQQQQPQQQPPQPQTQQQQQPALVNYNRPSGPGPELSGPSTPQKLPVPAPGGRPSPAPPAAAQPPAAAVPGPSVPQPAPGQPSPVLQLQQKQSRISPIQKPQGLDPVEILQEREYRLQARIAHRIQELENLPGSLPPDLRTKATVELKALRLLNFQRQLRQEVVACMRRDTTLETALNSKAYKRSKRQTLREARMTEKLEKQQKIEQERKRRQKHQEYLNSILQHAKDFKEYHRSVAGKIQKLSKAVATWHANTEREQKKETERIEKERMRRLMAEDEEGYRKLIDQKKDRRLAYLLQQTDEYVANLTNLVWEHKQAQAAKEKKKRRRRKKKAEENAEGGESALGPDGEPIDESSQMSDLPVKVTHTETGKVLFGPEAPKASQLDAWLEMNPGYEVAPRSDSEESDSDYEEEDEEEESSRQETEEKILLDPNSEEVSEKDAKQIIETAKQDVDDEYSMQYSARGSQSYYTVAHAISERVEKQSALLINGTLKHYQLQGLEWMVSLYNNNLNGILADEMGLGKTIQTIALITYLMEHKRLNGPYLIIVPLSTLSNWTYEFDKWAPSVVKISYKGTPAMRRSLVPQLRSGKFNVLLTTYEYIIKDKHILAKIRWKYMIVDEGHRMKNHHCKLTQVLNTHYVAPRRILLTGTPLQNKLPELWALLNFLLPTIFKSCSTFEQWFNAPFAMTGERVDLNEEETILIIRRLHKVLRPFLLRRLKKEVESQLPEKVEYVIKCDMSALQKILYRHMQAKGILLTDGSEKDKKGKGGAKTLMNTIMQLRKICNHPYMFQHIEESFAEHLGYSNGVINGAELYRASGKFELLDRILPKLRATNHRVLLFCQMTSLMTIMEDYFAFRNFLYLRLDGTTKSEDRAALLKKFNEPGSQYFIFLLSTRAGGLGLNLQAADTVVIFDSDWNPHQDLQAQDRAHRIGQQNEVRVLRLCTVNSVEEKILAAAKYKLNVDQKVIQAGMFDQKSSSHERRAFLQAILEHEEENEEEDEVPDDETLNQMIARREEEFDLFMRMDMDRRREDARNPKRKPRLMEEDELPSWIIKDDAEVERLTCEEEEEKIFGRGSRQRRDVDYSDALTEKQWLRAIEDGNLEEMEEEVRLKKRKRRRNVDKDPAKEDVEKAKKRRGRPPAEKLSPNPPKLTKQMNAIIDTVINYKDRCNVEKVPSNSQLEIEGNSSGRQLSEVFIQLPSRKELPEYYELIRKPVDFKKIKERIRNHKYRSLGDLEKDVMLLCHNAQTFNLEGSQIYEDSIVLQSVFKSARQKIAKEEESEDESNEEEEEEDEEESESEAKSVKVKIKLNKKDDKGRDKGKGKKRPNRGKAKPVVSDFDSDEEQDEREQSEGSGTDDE

On to `O=C1CCC(N2Cc3cc(N4CCC(CNC56CCC(C(=O)N7CCN8c9cc(-c%10ccccc%10O)nnc9NC[C@H]8C7)(CC5)CC6)CC4)ccc3C2=O)C(=O)N1` (stereo partly drawn) [Example 84, 3-(5-(4-(((4-((S)-2-(2-hydroxyphenyl)-6,6a,7,8,9,10-hexahydro-5H-pyrazino[1 ′,2′:4,5]pyrazino[2,3-c]pyridazine-8-carbonyl)bicyclo[2.2.2]octan-1-yl)amino)methyl)piperidin-1-yl)-1-oxoisoindolin-2-yl)piperidine-2,6-dione], for which, on SMARCA4-HiBiT, the DC50 (in general, the concentration at which degradation of the target reaches its halfway point) was under 10 nM and the Dmax – broadly, the largest share of the target that was removed – is 75 to 85%. On SMARCA2-HiBiT, the DC50 is under 10 nM and the Dmax was over 85%.

Regarding `O=C1CCC(N2Cc3ccc(N4CCC(CN5CCC(OC(=O)N6CCN7c8cc(-c9ccccc9O)nnc8NC[C@H]7C6)CC5)CC4)cc3C2=O)C(=O)N1` (stereo partly drawn) [Example 85, l-((l-(2-(2,6-dioxopiperidin-3-yl)-3-oxoisoindolin-5-yl)piperidin-4-yl)methyl)piperidin-4-yl (6aS)-2-(2-hydroxyphenyl)-5,6,6a,7,9,10-hexahydro-8H-pyrazino[1′,2′:4,5]pyrazino[2,3-c]pyridazine-8-carboxylate], at SMARCA4-HiBiT, the DC50 is under 10 nM and the Dmax lay within 75 to 85%. Further, on SMARCA2-HiBiT, the DC50 is under 10 nM and the Dmax is over 85%.

On to `O=C1CCC(N2C(=O)c3ccc(N4CC(CN5CCC(C(=O)N6CCN7c8cc(-c9ccccc9O)nnc8NC[C@H]7C6)CC5)C4)cc3C2=O)C(=O)N1` (stereo partly drawn) [Example 86, 2-(2,6-dioxopiperidin-3-yl)-5-(3-((4-((S)-2-(2-hydroxyphenyl)-6,6a,7,8,9,10-hexahydro-5H-pyrazino[1′,2′:4,5]pyrazino[2,3-c]pyridazine-8-carbonyl)piperidin-1-yl)methyl)azetidin-1-yl)isoindoline-1,3-dione], for which the DC50 at SMARCA4-HiBiT is 10 to 100 nM; on SMARCA2-HiBiT it was under 10 nM. For the same molecule, the Dmax was 50 to 75% on SMARCA4-HiBiT and over 85% on SMARCA2-HiBiT.

Take `CC1(C)CN(c2ccc3c(c2)C(=O)N(C2CCC(=O)NC2=O)C3=O)CCC1CN1CCC(CN2CCN3c4cc(-c5ccccc5O)nnc4NC[C@H]3C2)CC1` (stereo partly drawn) [Example 88, 2-(2,6-dioxopiperidin-3-yl)-5-(4-((4-(((S)-2-(2-hydroxyphenyl)-5,6,6a,7,9,10-hexahydro-8H-pyrazino[1′,2′:4,5]pyrazino[2,3-c]pyridazin-8-yl)methyl)piperidin-1-yl)methyl)-3,3-dimethylpiperidin-1-yl)isoindoline-1,3-dione]: on SMARCA4-HiBiT, the DC50 is under 10 nM and the Dmax was over 85%. Further, on SMARCA2-HiBiT, the DC50 is under 10 nM and the Dmax was over 85%.

With `COC1(CN2C[C@@H]3[C@@H](CN4CCN5c6cc(-c7ccccc7O)nnc6NC[C@H]5C4)[C@@H]3C2)CCN(c2ccc3c(c2)C(=O)N(C2CCC(=O)NC2=O)C3=O)CC1` (stereo partly drawn) [Example 89, 2-(2,6-dioxopiperidin-3-yl)-5-(4-(((1R,5S,6s)-6-(((S)-2-(2-hydroxyphenyl)-5,6,6a,7,9,10-hexahydro-8H-pyrazino[1′,2′:4,5]pyrazino[2,3-c]pyridazin-8-yl)methyl)-3-azabicyclo[3.1.0]hexan-3-yl)methyl)-4-methoxypiperidin-1-yl)isoindoline-1,3-dione], on SMARCA4-HiBiT, the DC50 was under 10 nM and the Dmax lay within 50 to 75%. Moreover, at SMARCA2-HiBiT, the DC50 is under 10 nM and the Dmax was 75 to 85%.

`O=C1CCC(N2C(=O)c3ccc(N4CCC(N5C[C@@H]6[C@@H](CN7CCN8c9cc(-c%10ccccc%10O)nnc9NC[C@H]8C7)[C@@H]6C5)CC4)cc3C2=O)C(=O)N1` (stereo partly drawn) [Example 90, 2-(2,6-dioxopiperidin-3-yl)-5-(4-((1R,5S,6s)-6-(((S)-2-(2-hydroxyphenyl)-5,6,6a,7,9,10-hexahydro-8H-pyrazino[1′,2′:4,5]pyrazino[2,3-c]pyridazin-8-yl)methyl)-3-azabicyclo[3.1.0]hexan-3-yl)piperidin-1-yl)isoindoline-1,3-dione]: at SMARCA4-HiBiT, the DC50 lay within 10 to 100 nM and the Dmax was 50 to 75%. Also, on SMARCA2-HiBiT, the DC50 was under 10 nM and the Dmax lay in the range of 50 to 75%.

With `CC1(CN2C[C@@H]3[C@@H](CN4CCN5c6cc(-c7ccccc7O)nnc6NC[C@H]5C4)[C@@H]3C2)CCN(c2ccc3c(c2)C(=O)N(C2CCC(=O)NC2=O)C3=O)CC1` (stereo partly drawn) [Example 91, 2-(2,6-dioxopiperidin-3-yl)-5-(4-(((1R,5S,6r)-6-(((S)-2-(2-hydroxyphenyl)-5,6,6a,7,9,10-hexahydro-8H-pyrazino[1′,2′:4,5]pyrazino[2,3-c]pyridazin-8-yl)methyl)-3-azabicyclo[3.1.0]hexan-3-yl)methyl)-4-methylpiperidin-1-yl)isoindoline-1,3-dione], the DC50 is 10 to 100 nM at SMARCA4-HiBiT and under 10 nM on SMARCA2-HiBiT. The Dmax on SMARCA4-HiBiT is 50 to 75%; on SMARCA2-HiBiT, over 85%.

`O=C1CCC(N2Cc3cc(N4CCC(CN5C[C@@H]6[C@H](C5)[C@H]6CN5CCN6c7cc(-c8ccccc8O)nnc7NC[C@H]6C5)CC4)ccc3C2=O)C(=O)N1` (stereo partly drawn) [Example 92, 3-(5-(4-(((1R,5S,6r)-6-(((S)-2-(2-hydroxyphenyl)-5,6,6a,7,9,10-hexahydro-8H-pyrazino[1′,2′:4,5]pyrazino[2,3-c]pyridazin-8-yl)methyl)-3-azabicyclo[3.1.0]hexan-3-yl)methyl)piperidin-1-yl)-1-oxoisoindolin-2-yl)piperidine-2,6-dione]: at SMARCA4-HiBiT, the DC50 is under 10 nM and the Dmax lay within 75 to 85%. Also, at SMARCA2-HiBiT, the DC50 is under 10 nM and the Dmax was over 85%.

As for `O=C1CCC(N2C(=O)c3ccc(N4CCC5(CC4)CC(N4C[C@@H]6[C@@H](CN7CCN8c9cc(-c%10ccccc%10O)nnc9NC[C@H]8C7)[C@@H]6C4)C5)cc3C2=O)C(=O)N1` (stereo partly drawn) [Example 93, 2-(2,6-dioxopiperidin-3-yl)-5-(2-((1R,5S,6s)-6-(((S)-2-(2-hydroxyphenyl)-5,6,6a,7,9,10-hexahydro-8H-pyrazino[1′,2′:4,5]pyrazino[2,3-c]pyridazin-8-yl)methyl)-3-azabicyclo[3.1.0]hexan-3-yl)-7-azaspiro[3.5]nonan-7-yl)isoindoline-1,3-dione], on SMARCA4-HiBiT, the DC50 is under 10 nM and the Dmax is over 85%. Moreover, on SMARCA2-HiBiT, the DC50 is under 10 nM and the greatest degradation seen (Dmax) is over 85%.

With `O=C1CCC(N2C(=O)c3ccc(N4CCCC5(CCN(CCN6CCN7c8cc(-c9ccccc9O)nnc8NC[C@H]7C6)CC5)C4)cc3C2=O)C(=O)N1` (stereo partly drawn) [Example 94, 2-(2,6-dioxopiperidin-3-yl)-5-(9-(2-((S)-2-(2-hydroxyphenyl)-5,6,6a,7,9,10-hexahydro-8H-pyrazino[1′,2′:4,5]pyrazino[2,3-c]pyridazin-8-yl)ethyl)-2,9-diazaspiro [5.5]undecan-2-yl) isoindoline-1,3-dione], the DC50 at SMARCA4-HiBiT and on SMARCA2-HiBiT was under 10 nM throughout. For the same molecule, the Dmax at SMARCA4-HiBiT and at SMARCA2-HiBiT was 50 to 75% throughout.

As for `O=C1CCC(N2Cc3ccc(N4CCC(CN5CCN(C(=O)N6CCN7c8cc(-c9ccccc9O)nnc8NC[C@H]7C6)CC5)CC4)cc3C2=O)C(=O)N1` (stereo partly drawn) [Example 95, 3-(6-(4-((4-((S)-2-(2-hydroxyphenyl)-6,6a,7,8,9,10-hexahydro-5H-pyrazino [1′,2′:4,5]pyrazino[2,3-c]pyridazine-8-carbonyl)piperazin-1-yl)methyl)piperidin-1-yl)-1-oxoisoindolin-2-yl)piperidine-2,6-dione], at SMARCA4-HiBiT, the DC50 was under 10 nM and the Dmax lay in the range of 75 to 85%. At SMARCA2-HiBiT, the DC50 was under 10 nM and the Dmax was over 85%.

Consider `O=C1CCC(N2Cc3ccc(N4CCC(CN5C[C@@H]6[C@H](C5)[C@H]6C(=O)N5CCN6c7cc(-c8ccccc8O)nnc7NC[C@H]6C5)CC4)cc3C2=O)C(=O)N1` (stereo partly drawn) [Example 96, 3-(6-(4-(((1R,5S,6r)-6-((S)-2-(2-hydroxyphenyl)-6,6a,7,8,9,10-hexahydro-5H-pyrazino[1′,2′:4,5]pyrazino[2,3-c]pyridazine-8-carbonyl)-3-azabicyclo[3.1.0]hexan-3-yl)methyl)piperidin-1-yl)-1-oxoisoindolin-2-yl)piperidine-2,6-dione], for which, at SMARCA4-HiBiT, the DC50 was in the range of 10 to 100 nM and the Dmax is at most 50%. Also, on SMARCA2-HiBiT, the DC50 was under 10 nM and the Dmax fell in the range of 50 to 75%.

`O=C1CCC(N2C(=O)c3ccc(N4CC[C@@H]5CN(C6CCC(C(=O)N7CCN8c9cc(-c%10ccccc%10O)nnc9NC[C@H]8C7)CC6)C[C@H]5C4)cc3C2=O)C(=O)N1` (stereo partly drawn) [Example 97, 2-(2,6-dioxopiperidin-3-yl)-5-((3aS,7aS)-2-(4-((S)-2-(2-hydroxyphenyl)-6,6a,7,8,9,10-hexahydro-5H-pyrazino[1′,2′:4,5]pyrazino[2,3-c]pyridazine-8-carbonyl)cyclohexyl)octahydro-5H-pyrrolo[3,4-c]pyridin-5-yl) isoindoline-1,3-dione]: the DC50 was 10 to 100 nM on SMARCA4-HiBiT and under 10 nM on SMARCA2-HiBiT. For the same molecule, the Dmax lay within 50 to 75% on SMARCA4-HiBiT and 75 to 85% at SMARCA2-HiBiT.

As for `O=C1CCC(N2C(=O)c3ccc(N4C[C@@H]5CN(C6CCC(C(=O)N7CCN8c9cc(-c%10ccccc%10O)nnc9NC[C@H]8C7)CC6)C[C@H]5C4)cc3C2=O)C(=O)N1` (stereo partly drawn) [Example 98, 2-(2,6-dioxopiperidin-3-yl)-5-((3aS,6aS)-5-(4-((S)-2-(2-hydroxyphenyl)-6,6a,7,8,9,10-hexahydro-5H-pyrazino[1′,2′:4,5]pyrazino[2,3-c]pyridazine-8-carbonyl)cyclohexyl)hexahydropyrrolo[3,4-c]pyrrol-2(1H)-yl) isoindoline-1,3-dione], at SMARCA4-HiBiT, the DC50 is under 10 nM and the Dmax is over 85%. In addition, at SMARCA2-HiBiT, the DC50 is under 10 nM and the Dmax is 75 to 85%.
